Data: patent US20230201550A1, “SYSTEMS AND METHODS FOR TREATING PERSISTENT PAIN OF NEUROGENIC ORIGIN AND COMPLEX INJURY” (Nova Neura, LLC, priority 2020, published 2023)

Test system: not listed separately
Experiment: Stability and crystallization of the topical composition
Assay type: physicochemical
Conditions: not given
Source text: Through experimentation it was discovered that a combination of sugars (e.g. mannitol with dextrose) with or without the addition of corn syrup (also known as glucose-fructose) would impede or completely eliminate the crystallization process, allowing for a higher concentration of these ingredients in solution.

stability in solution / of the formula, shelf-life	Compound
highly effective stabilizing measure	OCC(O)CO [Glycerin]

Same assay, conditions: winter temperatures or refrigerator; combination of sugars

crystallization of Mannitol in cold environments	Compound
significantly mitigated or eliminated	OC[C@@H](O)[C@@H](O)[C@H](O)[C@H](O)CO [Mannitol, reference compound]

Test system: rabbit ear
Experiment: not given
Conditions: rating out of 5 (x/5); cited from earlier work

Compound	comedogenicity
CC12CCC(CC1=O)C2(C)C (centres unmarked) [camphor, reference compound]	2/5
CCCCCCCCCCCCCCCCCC(=O)OCC(O)CO (centres unmarked) [glyceryl stearate]	3/5
CCCCCCCCCCCCCC(=O)OC(C)C [isopropyl myristate]	5/5
caprylic/capric triglyceride	0/5
CCCCCCCCCCCCCCCCCCO [cetearyl alcohol]	4/5
CC(C)=CCC/C(C)=C/CC/C(C)=C/CC/C=C(\C)CC/C=C(\C)CCC=C(C)C [squalene]	1/5
O=C1CC[C@@H](C(=O)[O-])N1.[Na+] [Sodium PCA, sodium L-pyroglutamate]	0/5
CCCCCCCCCCCCCCCC(=O)OCCCCCCCC [octyl palmitate]	4/5
cyclomethicone	0/5
